Measurements taken from patent publication US20150139987A1, “TREATMENT OF HOMOZYGOUS FAMILIAL HYPERCHOLESTEROLEMIA” (CymaBay Therapeutics, Inc., priority 2013, published 2015).
Like-named read-outs stand apart in the source and are kept apart here.

Legend:
[1] = system: patients with HoFH, HeFH, severe hyperlipidemia, high-risk coronary heart disease; conditions: human, in vivo; cited from earlier work
patients with HoFH [2] = conditions: added to maximally tolerated lipid lowering medications in HoFH patients; cited from earlier work
[3] = in vivo, cited from earlier work
apoB mRNA = conditions: HepG2, Hep3B, human and cynomolgus monkey primary hepatocytes; cited from earlier work
[4] = system: subjects with mixed dyslipidemia; conditions: cited from earlier work; for reduction of alkaline phosphatase: control group 4%; for reduction of LDL-C: 100 mg/day
[5] = system: patients with hypercholesterolemia; conditions: week 12; sc 50, 100, 150 mg twice monthly or 200, 300 mg once monthly; cited from earlier work
[6] = biological target: T1, peroxisome proliferator-activated receptor-δ (PPARδ) (Homo sapiens, UniProt Q03181); assay: PPARδ agonist potency; assay type: biochemical
T1 sequence (Q03181 1-441): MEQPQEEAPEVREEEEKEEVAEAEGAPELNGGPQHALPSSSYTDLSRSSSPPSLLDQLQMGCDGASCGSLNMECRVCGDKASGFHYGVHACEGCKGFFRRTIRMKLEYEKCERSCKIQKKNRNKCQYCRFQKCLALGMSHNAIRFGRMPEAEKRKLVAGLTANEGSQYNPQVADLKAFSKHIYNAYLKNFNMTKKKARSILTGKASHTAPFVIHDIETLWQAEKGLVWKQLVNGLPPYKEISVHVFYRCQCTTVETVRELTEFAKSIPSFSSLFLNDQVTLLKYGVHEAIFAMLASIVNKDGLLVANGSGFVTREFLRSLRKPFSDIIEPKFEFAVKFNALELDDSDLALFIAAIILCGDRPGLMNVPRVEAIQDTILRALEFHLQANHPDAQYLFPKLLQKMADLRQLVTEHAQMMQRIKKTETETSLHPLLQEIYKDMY
Description: (§1) PPARδ activation stimulates fatty acid oxidation and utilization, improves plasma lipid and lipoprotein metabolism, glucose utilization, and mitochondrial respiration, and preserves stem cell homeostasis.

LDL particle size = conditions: pattern B <25.75 nm, I 25.75-26.34 nm, A >26.34 nm; US 2010-0152295; cited from earlier work
subjects with HoFH = assay: Example 1: study with MBX-8025 in HoFH; assay type: in vivo, human; conditions: MBX-8025 L-lysine dihydrate salt 50, 100, or 200 mg/day
Protocol: Subjects are permitted their usual other medications, including lipid-lowering treatments. […] MRIs of the subjects' livers are taken every 4 weeks during the study and 4 weeks after study completion, to determine hepatic fat. At each visit, after a 12-hour fast, blood is drawn and urine collected; and a standard metabolic panel, complete blood count, and standard urinalysis are performed. Blood is analyzed for TC, HDL-C, LDL-C, VLDL-C, TG, and apoB. The subjects also maintain health diaries, which are reviewed at each visit.

PPARα = biological target: T2, PPARα (Homo sapiens, UniProt Q07869); assay: Specificity for PPARδ compared with PPARα; assay type: biochemical
T2 sequence (Q07869 1-468): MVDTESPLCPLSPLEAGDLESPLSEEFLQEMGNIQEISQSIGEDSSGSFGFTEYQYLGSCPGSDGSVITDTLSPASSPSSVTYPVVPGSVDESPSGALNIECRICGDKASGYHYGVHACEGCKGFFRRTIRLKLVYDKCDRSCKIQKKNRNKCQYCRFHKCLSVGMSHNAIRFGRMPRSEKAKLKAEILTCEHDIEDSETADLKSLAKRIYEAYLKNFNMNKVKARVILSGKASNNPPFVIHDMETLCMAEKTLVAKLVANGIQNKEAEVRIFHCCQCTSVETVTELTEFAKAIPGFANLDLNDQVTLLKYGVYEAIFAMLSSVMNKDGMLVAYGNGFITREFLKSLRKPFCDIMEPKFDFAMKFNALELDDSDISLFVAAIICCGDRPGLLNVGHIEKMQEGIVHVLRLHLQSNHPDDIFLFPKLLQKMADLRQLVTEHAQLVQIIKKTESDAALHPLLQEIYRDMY
Description: as §1

[7] = system: knockout mice lacking LDLR; assay: Lipid lowering in knockout mice lacking LDLR; assay type: in vivo
patients with HeFH [8] = conditions: cited from earlier work
patients with HoFH [9] = conditions: cited from earlier work
[10] = system: healthy volunteers with hypercholesterolemia; conditions: cited from earlier work
patients with HeFH [11] = conditions: cited from earlier work; remark: listed apart in the source
[12] = system: hypercholesterolemic subjects; conditions: cited from earlier work
[13] = alone and in combination with atorvastatin, 8 weeks

mipomersen
alanine aminotransferase ≧3× upper limit of normal [1]: 10% | aspartate aminotransferase ≧3× upper limit of normal [1]: 16% | flu-like symptoms (such as fatigue, fever, and chills) [1]: 30% | injection site reactions [1]: 84% | patients who discontinued for an adverse event or serious adverse event [1]: 18% | patients who discontinued for other reasons [1]: 4% | patients who discontinued for patient withdrawal [1]: 6% | reduction of LDL-C (patients with HoFH [2]): 25% | absorption time to maximum concentration ([3]; sc): 3 to 4 h | distribution half-life ([3]; sc): 2 to 5 h | elimination half-life ([3]; sc): 1-2 months | time to steady-state plasma trough [3]: ≤ 6 months | effect on apoB mRNA, protein, and secreted protein (apoB mRNA): selectively reduced apoB mRNA, protein, and secreted protein in a concentration- and time-dependent manner

CC(C)c1c(C(=O)Nc2ccccc2)c(-c2ccccc2)c(-c2ccc(F)cc2)n1CC[C@@H](O)C[C@@H](O)CC(=O)O [atorvastatin, reference compound]
decrease of LDL-L ([4]; 8 weeks): 30% | decrease of LDL-S/VS ([4]; 8 weeks): 25% | increase of γ-glutamyl transpeptidase ([4]; 8 weeks): 2% | reduction of alkaline phosphatase [4]: 6%

Bococizumab: anti-PCSK9 antibody
effect on LDL-C [5]: significant reductions in LDL-C at week 12

CCO[C@H](COc1ccc(C(F)(F)F)cc1)CSc1ccc(OCC(=O)O)c(C)c1 [MBX-8025, (R)-2-(4-((2-ethoxy-3-(4-(trifluoromethyl)phenoxy)propyl)thio)-2-methylphenoxy)acetic acid]
EC50 [6]: 2 nM | LDL particle size pattern conversion (LDL particle size): converts LDL particle size pattern I to pattern A; and from pattern B to pattern I or A | effect on TC, LDL-C, VLDL-C, TG, apoB and HDL-C (subjects with HoFH): dose-dependent lowering of TC, LDL-C, VLDL-C, TG and apoB, and raising of HDL-C | reduction of LDL-C ([4]; tertile with the highest starting LDL-C levels (187-205 mg/dL)): 35% | reduction of LDL-C ([4]; total population treated): 22% | decrease of LDL-S/VS ([4]; 8 weeks): 40-48% | increase of LDL-L ([4]; 8 weeks): 34-44% | reduction of apoB 100 compared to placebo ([4]; MBX-8025 50 or 100 mg alone and in combination with atorvastatin 20 mg, 8 weeks): 20-38% | raising of HDL-C [4, 13]: 1-12% | reduction of LDL compared to placebo [4, 13]: 18-43% | reduction of free fatty acids compared to placebo [4, 13]: 16-28% | reduction of high-sensitivity C-reactive protein compared to placebo [4, 13]: 43-72% | reduction of non-HDL-C compared to placebo [4, 13]: 18-41% | reduction of triglycerides compared to placebo [4, 13]: 26-30% | reduction of γ-glutamyl transpeptidase ([4]; control group 3%): 24-28% | reduction of alkaline phosphatase [4]: 32-43% | insulin sensitivity (HOMA-IR, fasting plasma glucose, insulin) ([4]; in vivo): increases insulin sensitivity | reduction of the percentage of subjects meeting the criteria for metabolic syndrome ([4]; in vivo): > 2 fold | safety and tolerability ([4]; in vivo): safe and generally well-tolerated | serum aminotransferases ([4]; in vivo): reducing serum aminotransferases | waist circumference and lean body mass ([4]; in vivo): trends towards a decrease in waist circumference and increase in lean body mass | specificity for PPARδ compared with PPARα (PPARα): > 600 fold | LDLR dependence of LDL-C lowering [7]: do not require an effective LDLR to lower LDL-C and improve other lipid parameters

Alirocumab: anti-PCSK9 antibody
reduction in LDL-C (patients with HeFH [8]; 150 mg/2 weeks sc): 68% | reduction in LDL-C (patients with HeFH [8]; 150 mg/4 weeks sc): 29% | tolerability (patients with HeFH [8]; in vivo): well tolerated

O=C(NC1CCN(CCCCC2(C(=O)NCC(F)(F)F)c3ccccc3-c3ccccc32)CC1)c1ccccc1-c1ccc(C(F)(F)F)cc1 [lomitapide, N-(2,2,2-trifluoroethyl)-9-(4-(4-(4′-(trifluoromethyl)-[1,1′-biphenyl]-2-ylcarboxamido)piperidin-1-yl)butyl)-9H-fluorene-9-carboxamide]
patients reporting gastrointestinal adverse reactions (patients with HoFH [9]; 27 of 29 patients, Phase 3 trial): 93% | patients reporting vomiting, dyspepsia and abdominal pain (each) (patients with HoFH [9]; AEs reported by 8 or more of 29 patients): ≥ 28% | patients reporting diarrhea (patients with HoFH [9]; Phase 3 trial, 29 patients): 79% | patients reporting nausea (patients with HoFH [9]; Phase 3 trial, 29 patients): 65% | patients who discontinued the trial for AEs (patients with HoFH [9]; of the 29 patients): Five | reduction of LDL-C [10]: up to 65%

B1: evolocumab: anti-PCSK9 antibody (antibody, chains of the INN, looked up, V domains shown)
VH: EVQLVQSGAEVKKPGASVKVSCKASGYTLTSYGISWVRQAPGQGLEWMGWVSFYNGNTNYAQKLQGRGTMTTDPSTSTAYMELRSLRSDDTAVYYCARGYGMDVWGQGTTVTVSS
VL: ESALTQPASVSGSPGQSITISCTGTSSDVGGYNSVSWYQQHPGKAPKLMIYEVSNRPSGVSNRFSGSKSGNTASLTISGLQAEDEADYYCNSYTSTSMVFGGGTKLTVL
effect on LDL-C relative to placebo (patients with HeFH [11]; 140 mg every 2 weeks or 420 mg every month sc): Significant reductions in LDL-C | muscle-related AEs (patients with HeFH [11]; in vivo): 5% | nasopharyngitis (patients with HeFH [11]; in vivo): 9% | tolerability (patients with HeFH [11]; in vivo): well tolerated | reduction of LDL-C levels [12]: more than 50%
